The structures appear in SMILES notation. pEC50: −log10 of the molar value.

Sequence of Intestinal-type alkaline phosphatase (P09923 whole entry): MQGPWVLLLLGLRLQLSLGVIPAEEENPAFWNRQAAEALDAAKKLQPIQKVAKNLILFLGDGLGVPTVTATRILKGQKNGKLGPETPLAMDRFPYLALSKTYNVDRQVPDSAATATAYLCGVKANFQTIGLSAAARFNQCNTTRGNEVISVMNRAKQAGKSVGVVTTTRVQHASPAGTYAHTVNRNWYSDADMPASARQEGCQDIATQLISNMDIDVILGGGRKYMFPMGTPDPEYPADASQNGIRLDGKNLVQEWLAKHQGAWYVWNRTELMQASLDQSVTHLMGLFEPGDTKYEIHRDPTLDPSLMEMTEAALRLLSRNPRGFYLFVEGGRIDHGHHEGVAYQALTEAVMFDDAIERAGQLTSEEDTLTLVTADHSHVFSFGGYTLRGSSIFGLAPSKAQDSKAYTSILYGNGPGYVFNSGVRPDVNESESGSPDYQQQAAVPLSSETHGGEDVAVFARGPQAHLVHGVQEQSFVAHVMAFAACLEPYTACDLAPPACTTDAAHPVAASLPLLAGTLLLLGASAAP

The experiment addresses Intestinal-type alkaline phosphatase (Homo sapiens, UniProt P09923). As to the kind of experiment: activation of human intestinal alkaline phosphatase – biochemical, dose response (AID 488873).
On to `Cc1cc(=O)[nH]c(N=NCc2ccc(O)c(O)c2)n1` [MLS001194906], for which the pEC50 (as a rule, the negative decadic logarithm of the EC50, by convention in mol/L) was 4.18. The same measure for `CN(CCO)c1ccc(CN=Nc2ccc([N+](=O)[O-])cc2S(=O)(=O)Nc2ccccc2C(=O)O)cc1`: 4.58. Compound `C#CCOCCOCCOCCNc1nc(N2CCN(C(=O)CCCCCCCCCCNC(=O)[C@@H](CCC(=O)O)n3cc(CCCCCN)nn3)CC2)nc(N2CCN(C(=O)CCCCCCCCCCNC(=O)[C@H]([C@@H](C)CC)n3cc(CCCCCN)nn3)CC2)n1` [KI-KE] had a pEC50 of less than 4.00. `O=C1CC(=O)c2c(O)cc(O)c(O)c2C1=O` [4,5,7,8-tetrahydroxy-1,2-naphthoquinone]: the pEC50 is less than 4.00. With `Oc1ccc(CN=Nc2cc(N3CCCC3)nc(N3CCCC3)n2)cc1O` [(4Z)-4-[[2-(2,6-dipyrrolidin-1-ylpyrimidin-4-yl)hydrazinyl]methylidene]-2-hydroxycyclohexa-2,5-dien-1-one], the pEC50 was less than 4.00. The result for `O=C(NN=CC1=CC(=O)C(=O)CC1)NN=CC1=CC(=O)C(=O)CC1` [1,3-bis[[(Z)-(3-hydroxy-4-oxocyclohexa-2,5-dien-1-ylidene)methyl]amino]urea] reads 4.18.

The values are drawn from BindingDB's records for doi:10.7270/Q29G5K8R (Burnham Center For Chemical Genomics, 2010).
